Assay results reported in US20210352863A1, “METHOD FOR CONTROLLING WEED BEETS AND OTHER WEEDS” (KWS SAAT SE & Co. KGaA, priority 2018, published 2021).

How the values were obtained:
[1] = acid form, at 25° C.; cited from earlier work
[2] = system: sugar beet elite line T807 (mutagenized, M2 plants); experiment: glyphosate treatment of surviving M2 plants of mutagenized sugar beet (screening and selection for resistance); assay type: in vivo, Beta vulgaris (sugar beet); details: 600 g/ha glyphosate acid equivalent
Description: 6 kg seeds of sugar beet elite line T807 (3BT1760, M0 population) were mutagenized with 0.5% EMS and 0.3% and 0.5%, respectively ENU, and subsequently drilled for steck production. Stecks were replanted for seed production occupying an area of 5.8 ha. M1 population sizes were 75,000 seed producing plants for EMS and 19,000 plants for ENU mutagenized seeds. The following M2 seed amounts (values given for purified seed) has been obtained: 240 kg for 0.5% EMS (idents A and B), 548 kg for 0.3% ENU (idents C and D), and 256 kg 0.5% ENU (idents E and F).
176 kg of idents A and B and 75 kg of idents C, D, E and F were sown on an approximately 15 ha spanning field site. Approximately 1 month after sowing, the entire field was sprayed with 0.88 I/ha ROUNDUP® MAX (680 g/kg glyphosate acid equivalent). Approximately 6 weeks later, plants surviving the glyphosate treatment were collected in the field, transplanted to pots and further cultivated in the greenhouses. Surviving plants were treated with 600 g/ha glyphosate acid equivalent about 2 months later.
In order to identify the causative mutation behind the observed herbicide resistance sequencing analyses have been performed. Inter alia, the exon 2 of the epsp synthase gene in sugar beet was PCR amplified (primers BvEPSPS_Ex_2_for, 5′-[…]-3′ (SEQ ID NO: 13), and BvEPSPS_Ex_2_rev, 5′-[…]-3′ (SEQ ID NO: 14)) and Sanger sequenced (primers BvEPSPS_Ex2_Seqf, 5′-[…]-3′ (SEQ ID NO: 15), and BvEPSPS_Ex2_Seqr, 5′-[…]-3′ (SEQ ID NO: 16)) in all 172 surviving plants. The sugar beet plant with identifier 6MS1008-109 carried a C to T mutation that causes the P179S amino acid change in BvEPSPS. This artificial SNP has been independently confirmed by KASP marker assay using an in silico developed KASP-marker s1txepss02 (SEQ ID NOs: 17-19): […]

O=C(O)CNCP(=O)(O)O [glyphosate, N-phosphonomethylglycine]
solubility in water [1]: 1.16 % by weight | resistance conferred by heterozygous P179S mutation in BvEPSPS ([2]; approx. 50% of standard field treatment level, strong indication from screening and selection): complete resistance | plants that survived the treatment ([2]; potted greenhouse plants that had survived the field spray with ROUNDUP MAX): 172 plants | herbicide damage on surviving plants ([2]; the 172 surviving plants in the greenhouse): without any signs of herbicide damage
